The test system of the assay is IL-12 production. Description: Human in vitro assay: inhibition of IL-12 production in stimulated human PBMC or THP-1 cells (sandwich ELISA). Particulars: primed with IFNγ and stimulated with LPS or SAC, IL-12 by ELISA. The format is cell-based. An excerpt: The biological activities of the compounds of the invention can be evaluated by a number of cell-based assays. One of such assays can be conducted using cells from human peripheral blood mononuclear cells (PBMC) or human monocytic cell line (THP-1). The cells are stimulated with a combination of human interferon-γ (IFNγ) and lipopolysaccharide or a combination of IFNγ and Staphylococcus aureus Cowan I in the presence of a test compound. The level of inhibition of IL-12 production can be measured by determining the amount of p70 by using a sandwich ELISA assay with anti-human IL-12 antibodies. IC50 of the test compound can then be determined. Specifically, PBMC or THP-1 cells are incubated with the test compound. Cell viability was assessed using the bioreduction of MTS [3-(4,5-dimethylthiazol-2-yl)-5-(3-carboxymethoxyphenyl)-2-(4-sulfophenyl)-2H-tetrazolium] (Promega, Madison, Wis.).
Reagents. Staphylococcus aureus Cowan I (SAC) is obtained from Calbiochem (La Jolla, Calif.), and lipopolysaccharide (LPS, Serratia marscencens) is obtained from Sigma (St. Louis, Mo.). Human and mouse recombinant IFNγ are purchased from Boehringer Mannheim (Mannheim, Germany) and Pharmingen (San Diego, Calif.), respectively.
Human In Vitro Assay. Human PBMC were isolated by centrifugation using Ficoll-Paque (Pharmacia Biotech, Uppsala, Sweden) and prepared in RPMI medium supplemented with 10% fetal calf serum (FCS), 100 U/mL penicillin, and 100 μg/mL streptomycin. PBMC were plated in wells of a 96-well plate at a concentration of 5×10^5 cells/well, and primed by adding IFNγ (30 U/mL) for 22 h and stimulated by adding LPS (1 μg/mL), or by adding IFNγ (100 U/mL) and then stimulated by adding SAC (0.01%). A test heteroaryl hydrazone compound was dissolved in DMSO, and added to wells of the 96-well plate. The final DMSO concentration was adjusted to 0.25% in all cultures, including the compound-free control. Human THP-1 cells were plated in wells, primed by adding IFNγ (100 U/mL) for 22 h and stimulated by adding SAC (0.025%) in the presence of different concentrations of the heteroaryl hydrazone compound. Cell-free supernatants were taken 18 h later for measurement of cytokines. Cell viability was assessed using the bioreduction of MTS. Cell survival was estimated by determining the ratio of the absorbance in compound-treated groups versus compound-free control.
The supernatant was assayed for the amount of IL-12p40, IL-12p70, or IL-10 by using a sandwich ELISA with anti-human antibodies, i.e., a Human IL-12 p40 ELISA kit from R&D Systems (Berkeley, Calif.), and a Human IL-12 p70 or IL-10 ELISA kit from Endogen (Cambridge, Mass.). Assays were based on the manufacturer's instructions.
The biological activities of heteroaryl hydrazone compounds were tested on human PBMC or THP-1 cells.
Consider `COc1cccc(NN=Cc2cc(N3CCOCC3)nc(OCCc3ccccn3)n2)c1` [Compound 3, N-(3-Methoxy-phenyl)-N′-[6-morpholin-4-yl-2-(2-pyridin-2-yl-ethoxy)-pyrimidin-4-ylmethylene]-hydrazine], for which the IC50 was found to be 2.2 nM. The result for `Cc1cccc(NN=Cc2cc(OCCc3ccccn3)nc(N3CCOCC3)n2)c1` [Compound 6, N-[2-Morpholin-4-yl-6-(2-pyridin-2-yl-ethoxy)-pyrimidin-4-ylmethylene]-N′-m-tolyl-hydrazine] reads 40 nM; that for `Cc1ccc(C)c(NN=Cc2cc(N3CCOCC3)nc(OCCc3ccccn3)n2)c1` [Compound 4, N-(2,5-Dimethyl-phenyl)-N′-[6-morpholin-4-yl-2-(2-pyridin-2-yl-ethoxy)-pyrimidin-4-ylmethylene]-hydrazine], 6.5 nM. In the case of `Clc1cccc(NN=Cc2cc(N3CCOCC3)nc(OCCc3ccccn3)n2)c1` [Compound 2, N-(3-Chloro-phenyl)-N′-[6-morpholin-4-yl-2-(2-pyridin-2-yl-ethoxy)-pyrimidin-4-ylmethylene]-hydrazine] it was 10 nM; in that of `Cc1cccc(NN=Cc2cc(N3CCOCC3)nc(OCCc3ccccn3)n2)c1` [Compound 1, N-[6-Morpholin-4-yl-2-(2-pyridin-2-yl-ethoxy)-pyrimidin-4-ylmethylene]-N′-m-tolyl-hydrazine], 2.2 nM.

Values taken from patent publication US7935698B2, “Heteroaryl-hydrazone compounds” (Synta Pharmaceuticals Corporation, priority 2003, dated 2011).
